Source: patent publication US5208343A, “Tetrahydropyridine oxime compounds” (Warner-Lambert Company, priority 1992, dated 1993)

Experiments:
[1] = target: sigma binding site; test: Sigma binding affinity using [^3 H]-(+)-3-(3'-hydroxyphenyl) N (1'-propyl)piperidine ([^3 H]3PPP); settings: [^3 H]3PPP radioligand, in vitro
Protocol: (§1) Sigma binding affinities are measured using [^3 H]-(+)-3-(3'-hydroxyphenyl) N (1'-propyl)piperidine, referred to in the following Table I as 3PPP. This test is carried out according to the procedures of B. L. Largent, et al, Proc. Natl. Acad. Sci., USA, 1984; 81:5618. The affinity of the compounds of the present invention for dopamine receptors was determined in vitro with the dopamine antagonist [^3 H]spiperone according to the procedure of S. Urwyler, et al, J. Neurochem. 1986; 46:1058. The ability of the compounds to bind muscarinic antagonist sites was determined in vitro using [^3 H]-quinuclidinyl benzylate (RQNB) according to the procedure of M. Watson, et al, J. Pharmacol. Exp. Ther. 1986; 237:411.

[2] = tested on: muscarinic antagonist sites; test: Binding to muscarinic antagonist sites using [^3 H]-quinuclidinyl benzylate (RQNB); settings: in vitro
Protocol: as §1

[3] = target: dopamine receptors; test: Affinity for dopamine receptors with the dopamine antagonist [^3 H]spiperone (RBSP); format: binding; settings: in vitro
Protocol: as §1

Compound: CCCN1CC=CC(CCC(=NO)c2ccccc2)C1.O=C(O)C(=O)O (stereo not drawn) [1(e)(a), 1-Phenyl-3-(1,2,3,6-tetrahydro-1-propyl-3-pyridinyl)-1-propanone oxime oxalate]
- IC50 [1]: 2.07 nM
- RQNB % Inhib at 10^-6 M [2]: 27%
- IC50 [3]: > 1000 nM

Compound: CCCN1CCC=C(CCC(=NO)c2ccccc2)C1.O=C(O)C(=O)O [1(e)(b), 1-Phenyl-3-(1,2,5,6-tetrahydro-1-propyl-3-pyridinyl)-1-propanone oxime oxalate]
- IC50 [1]: 1.99 nM
- RQNB % Inhib at 10^-6 M [2]: 10%
- IC50 [3]: > 1000 nM

Compound: CCCN1CC=CC(CCC(=NO)c2ccc(OC)cc2)C1.O=C(O)C(=O)O (stereo not drawn) [2(e)(a), 1-(4-Methoxyphenyl)-3-(1,2,3,6-tetrahydro-1-propyl-3-pyridinyl)-1-propanoneoxime oxalate]
- IC50 [1]: 6.49 nM
- RQNB % Inhib at 10^-6 M [2]: 6%
- IC50 [3]: > 1000 nM

Compound: CCCN1CCC=C(CCC(=NO)c2ccc(OC)cc2)C1.O=C(O)C(=O)O [2(e)(b), 1-(4-Methoxyphenyl)-3-(1,2,5,6-tetrahydro-1-propyl-3-pyridinyl)-1-propanone oxime oxalate]
- IC50 [1]: 2.39 nM
- RQNB % Inhib at 10^-6 M [2]: 9%
- IC50 [3]: > 1000 nM
